Assay results published in patent publication US10118918B2, “PRMT5 inhibitors and uses thereof” (Epizyme, Inc., priority 2012, dated 2018).

Test system: symmetric di-methyl arginine in Z-138 cells
Assay: Z-138 Methylation Assay (In Cell Western for symmetric di-methyl arginine and DNA content)
Format: cell-based
Settings: 96 hours incubation, read-out: ICW EC50
Description: [formula] Where top and bottom are the normally allowed to float, but may be fixed at 100 or 0 respectively in a 3-parameter fit. The Hill Coefficient normally allowed to float but may also be fixed at 1 in a 3-parameter fit. Y is the % inhibition and X is the compound concentration. Z-138 Methylation Assay
Z-138 suspension cells were purchased from ATCC (American Type Culture Collection, Manassas, Va.). RPMI/Glutamax medium, penicillin-streptomycin, heat inactivated fetal bovine serum, and D-PBS were purchased from Life Technologies, Grand Island, N.Y., USA. Odyssey blocking buffer, 800CW goat anti-rabbit IgG (H+L) antibody, and Licor Odyssey infrared scanner were purchased from Licor Biosciences, Lincoln, Nebr., USA. Symmetric di-methyl arginine antibody was purchased from EMD Millipore, Billerica, Mass., USA. 16% Paraformaldehyde was purchased from Electron Microscopy Sciences, Hatfield, Pa., USA.
Z-138 suspension cells were maintained in growth medium (RPMI 1640 supplemented with 10% v/v heat inactivated fetal bovine serum and 100 units/mL penicillin-streptomycin) and cultured at 37° C. under 5% CO2.
Cell Treatment, in Cell Western (ICW) for Detection of Symmetric Di-Methyl Arginine and DNA Content.
Z-138 cells were seeded in assay medium at a concentration of 50,000 cells per mL to a 384-well cell culture plate with 50 μL per well. Compound (100 nL) from 384 well source plates was added directly to 384 well cell plate. Plates were incubated at 37° C., 5% CO2 for 96 hours. After four days of incubation, 40 μL of cells from incubated plates were added to poly-D-lysine coated 384 well culture plates (BD Biosciences 356697). Plates were incubated at room temperature for 30 minutes then incubated at 37° C., 5% CO2 for 5 hours. After the incubation, 40 μL per well of 8% paraformaldehyde in PBS (16% paraformaldahyde was diluted to 8% in PBS) was added to each plate and incubated for 30 minutes. Plates were transferred to a Biotek 405 plate washer and washed 5 times with 100 μL per well of wash buffer (IX PBS with 0.1% Triton X-100 (v/v)). Next 30 μL per well of Odyssey blocking buffer were added to each plate and incubated 1 hour at room temperature. Blocking buffer was removed and 20 μL per well of primary antibody was added (symmetric di-methyl arginine diluted 1:100 in Odyssey buffer with 0.1% Tween 20 (v/v)) and plates were incubated overnight (16 hours) at 4° C. Plates were washed 5 times with 100 μL per well of wash buffer. Next 20 μL per well of secondary antibody was added (1:200 800CW goat anti-rabbit IgG (H+L) antibody, 1:1000 DRAQ5 (Biostatus limited) in Odyssey buffer with 0.1% Tween 20 (v/v)) and incubated for 1 hour at room temperature. The plates were washed 5 times with 100 μL per well wash buffer then 1 time with 100 μL per well of water. Plates were allowed to dry at room temperature then imaged on the Licor Odyssey machine which measures integrated intensity at 700 nm and 800 nm wavelengths. Both 700 and 800 channels were scanned.
First, the ratio for each well was determined by:
Each plate included fourteen control wells of DMSO only treatment (minimum inhibition) as well as fourteen control wells for maximum inhibition treated with 3 μM of a reference compound (Background wells). The average of the ratio values for each control type was calculated and used to determine the percent inhibition for each test well in the plate. Reference compound was serially diluted three-fold in DMSO for a total of nine test concentrations, beginning at 3 μM. Percent inhibition was determined and IC50 curves were generated using triplicate wells per concentration of compound. […]

Molecule	EC50 [µM]
N-(2-hydroxy-3-(isoindolin-2-yl)propyl)-2-((4-methyl-3,4-dihydro-2H-benzo[b][1,4]oxazin-5-yl)oxy)acetamide [compound 10]	0.101 to 1

Same assay, conditions: Homo sapiens, 96 hours incubation, read-out: ICW EC50

Molecule	EC50 [µM]
C[C@@H](Oc1cccc2cccnc12)C(=O)NC[C@H](O)CN1Cc2ccccc2C1 [compound 5, (R)—N—((S)-2-hydroxy-3-(isoindolin-2-yl)propyl)-2-(quinolin-8-yloxy)propanamide]	0.101 to 1
O=C(COc1ccccc1-c1cc[nH]n1)NCC(O)CN1Cc2ccccc2C1 (stereo not shown) [compound 7]	0.101 to 1
O=C(NCC(O)CN1Cc2ccccc2C1)c1cccc(-c2ccccn2)c1 (stereo not shown) [compound 13, N-(2-hydroxy-3-(isoindolin-2-yl)propyl)-3-(pyridin-2-yl)benzamide]	1 to 10
CN(C)S(=O)(=O)c1ccccc1OCC(=O)NCC(O)CN1Cc2ccccc2C1 (stereo not shown) [compound 15, 2-(2-(N,N-dimethylsulfamoyl)phenoxy)-N-(2-hydroxy-3-(isoindolin-2-yl)propyl)acetamide]	0.101 to 1
O=C(COc1cccc2cccnc12)NCC(O)CN1Cc2ccccc2C1 (stereo not shown) [compound 19, N-(2-hydroxy-3-(isoindolin-2-yl)propyl)-2-(quinolin-8-yloxy)acetamide]	1 to 10
O=C(NC[C@H](O)CN1Cc2ccccc2C1)c1cccc(NC2CCOCC2)c1 [compound 28]	0.101 to 1
O=C(NC[C@H](O)CN1Cc2ccccc2C1)c1cc(NC2CCOCC2)ncn1 [compound 29]	0.101 to 1
Cc1nc(NC2COC2)cc(C(=O)NC[C@H](O)CN2Cc3ccccc3C2)n1 [compound 35]	> 1
O=C(NC[C@H](O)CN1Cc2ccccc2C1)c1cc(NC2COC2)nc(C(F)(F)F)n1 [compound 36]	0.101 to 1
O=C(CCc1nc2ccccc2[nH]1)NCC(O)CN1Cc2ccccc2C1 (stereo not shown) [compound 37]	0.101 to 1
O=C(NC[C@H](O)CN1Cc2ccccc2C1)c1cc(NC2COC2)nc(N2CCOCC2)n1 [compound 38]	< 0.1
CC(=O)N1CCC(Nc2cc(C(=O)NC[C@H](O)CN3Cc4ccccc4C3)ccn2)CC1 [compound 40]	< 0.1
O=C(NC[C@H](O)CN1CCc2ccccc21)c1cc(NC2COC2)ncn1 [compound 42]	> 1
CC(=O)N1CCC(Nc2cc(C(=O)NC[C@H](O)CN3CCc4ccccc43)ncn2)CC1 [compound 43]	> 1
CC(=O)N1CCC(Nc2cc(C(=O)NC[C@H](O)CN3CCc4ccccc43)ccn2)CC1 [compound 44]	> 1
O=C(NC[C@H](O)CN1CCCCc2ccccc21)c1cc(NC2COC2)ncn1 [compound 45]	> 1
CC(=O)N1CC(Nc2cc(C(=O)NC[C@H](O)CN3CCCCc4ccccc43)ncn2)C1 [compound 46]	> 1
CC(=O)N1CCC(Nc2cc(C(=O)NC[C@H](O)CN3CCCCc4ccccc43)ncn2)CC1 [compound 47]	> 1
O=C(NC[C@H](O)CN1CCCc2ccccc2C1)c1cc(NC2COC2)ncn1 [compound 48]	> 1
CC(=O)N1CC(Nc2cc(C(=O)NC[C@H](O)CN3CCCc4ccccc4C3)ncn2)C1 [compound 49]	> 1
CC(=O)N1CCC(Nc2cc(C(=O)NC[C@H](O)CN3CCCc4ccccc4C3)ncn2)CC1 [compound 50]	> 1
